Laboratory results published in the NIST ThermoML archive (doi:10.1021/acs.jced.6b00120).
Numbers after ± are expanded uncertainties.

Experiment: xn = mol fraction of the nth substance listed
Settings: Gas, Buoyancy - hydrostatic balance with magnetic suspension - two sinkers, x1 = 0.05049

[Ar] [argon] + O=C=O
Settings | mass density [kg/m3]
273.15 K, 526.54 kPa | 10.5097 ± 0.0037
273.15 K, 1045.7 kPa | 21.6518 ± 0.0059
273.15 K, 2054.6 kPa | 46.254 ± 0.011
273.15 K, 2521.6 kPa | 59.4639 ± 0.014
273.15 K, 2948.2 kPa | 72.995 ± 0.017
283.15 K, 487.17 kPa | 9.32016 ± 0.0035
283.15 K, 1034 kPa | 20.4562 ± 0.0056
283.15 K, 2045.6 kPa | 43.428 ± 0.01
283.15 K, 3054.1 kPa | 70.7119 ± 0.016
283.15 K, 4058.4 kPa | 105.393 ± 0.024
293.15 K, 501.22 kPa | 9.23865 ± 0.0035
293.15 K, 1009.9 kPa | 19.1313 ± 0.0053
293.15 K, 2033.5 kPa | 40.9568 ± 0.0097
293.15 K, 3031.1 kPa | 65.5032 ± 0.015
293.15 K, 4032.7 kPa | 95.0463 ± 0.022
293.15 K, 5045.2 kPa | 133.561 ± 0.031
293.15 K, 5530.5 kPa | 157.768 ± 0.038
308.15 K, 493.91 kPa | 8.62503 ± 0.0034
308.15 K, 996.02 kPa | 17.7876 ± 0.0051
308.15 K, 2002.5 kPa | 37.5504 ± 0.009
308.15 K, 3004.5 kPa | 59.5083 ± 0.013
308.15 K, 4005.8 kPa | 84.4871 ± 0.019
308.15 K, 5012.9 kPa | 113.924 ± 0.026
308.15 K, 6005.3 kPa | 149.364 ± 0.035
308.15 K, 6991.8 kPa | 195.441 ± 0.047
308.15 K, 7418.4 kPa | 221.117 ± 0.056
308.15 K, 7793.4 kPa | 248.529 ± 0.066
323.15 K, 521.21 kPa | 8.65936 ± 0.0034
323.15 K, 1030.2 kPa | 17.4463 ± 0.005
323.15 K, 2009.8 kPa | 35.3997 ± 0.0085
323.15 K, 3012.4 kPa | 55.4385 ± 0.013
323.15 K, 4030.3 kPa | 77.9178 ± 0.017
323.15 K, 5045.6 kPa | 103.062 ± 0.023
323.15 K, 6032.4 kPa | 130.908 ± 0.03
323.15 K, 7032.7 kPa | 163.762 ± 0.038
323.15 K, 8023.8 kPa | 202.754 ± 0.049
323.15 K, 8533.5 kPa | 226.233 ± 0.056
323.15 K, 8988 kPa | 249.635 ± 0.061
